How the values were obtained:
[1] = DPPH radical scavenging activity test; type: biochemical
Experimental: DPPH (α,α-diphenyl-β-picrylhydradil) is a purple stable radical having a maximum absorption at 517 nm, which is converted into colorless hydrazine by gaining hydrogen. This color reaction was utilized so as to determine the radical scavenging activity of each of Compounds 1 to 4 and the like. That is, each of Compounds 1 to 4 was dissolved in ethanol to prepare 3 ml of a sample solution having a concentration of 25 μM. Thereafter, to each of the resultant sample solutions, 0.75 ml of a 0.5 mM DPPH solution (whose solvent was ethanol) was added and stirred, and reacted in a dark place for one hour, followed by the determination of an absorbance at 517 nm. Furthermore, in place of Compounds 1 to 4, BHT (butylated hydroxytoluene), α-tocopherol or eriodictyol was used so as to determine an absorbance according to a similar procedure to the above. Besides, instead of the above sample solutions, ethanol was used as a control so as to determine an absorbance according to a similar procedure to the above. Then the radical scavenging activity (%) of each of the materials was calculated using the following calculation formula 1. Incidentally, each of values shown in Table 1 is the average value and standard deviation of values obtained from three runs. (Radical Scavenging Activity)=[{(Absorbance of Control)−(Absorbance of Sample Solution)}/(Absorbance of Control)]×100 Calculation Formula 1

[2] = β-carotene fading test; type: biochemical; details: 20 μM in reaction liquid, 60° C. for 60 minutes, absorbance 470 nm; average ± SD of three runs
Experimental: β-carotene will fade due to the reaction of linoleic acid peroxide, which is produced by the autoxidation of linoleic acid, with a double bond in β-carotene. This phenomenon was utilized so as to determine the antioxidant activity of each of Compounds 1 to 4 and the like. That is, first of all, 2 ml of a 200 mg/ml solution of Tween-40 in chloroform, 0.4 ml of a 100 mg/ml solution of linoleic acid in chloroform, and 3 ml of a 0.1 mg/ml solution of β-carotene in chloroform were mixed, and thereafter the solvent was removed by using a nitrogen gas. Subsequently, 100 ml of distilled water was added thereto, and adequately stirred to obtain an emulsion. To 3 ml of this emulsion, ethanol was added to completely dissolve the solute in the solvent. Thereafter, each of Compounds 1 to 4 was dissolved in ethanol so as to prepare a sample solution having a concentration of 1.2 mM. 50 μl of the sample solution was mixed with the above emulsion wherein the solute had been completely dissolved so as to prepare a reaction liquid (or a sample reaction liquid). Then the concentration of each of Compounds 1 to 4 in the reaction liquid was 20 μM. The reaction liquid was incubated at 60° C. for 60 minutes. Then the absorbance of each of the reaction liquid before the incubation and the reaction liquid after the incubation was determined at 470 nm. Furthermore, BHT, α-tocopherol, or eriodictyol was used in place of Compounds 1 to 4 so as to determine the absorbance of the reaction liquid before and after incubation according to a similar procedure to the above-mentioned one. In addition, as a control, a reaction liquid (or a control reaction liquid) wherein no sample solution was contained was prepared so as to determine the absorbance of the reaction liquid before and after incubation according to a similar procedure to the above-mentioned one. The antioxidant activity (%) of each of the materials was calculated using the following calculation formula 2. Incidentally, each of values shown in Table 1 is the average value and standard deviation of values obtained from three runs. (Antioxidant Activity)=[{(Fading Rate of Control)−(Fading Rate of Sample Solution)}/(Fading Rate of Control)]×100 Calculation Formula 2
It should be noted that in the calculation formula 2, “Fading Rate of Control” is the natural logarithm of a value which is acquired by dividing the absorbance of the control reaction liquid before incubation by the absorbance of the control reaction liquid after incubation and further by dividing the resultant value by 60; and “Fading Rate of Sample Solution” is the natural logarithm of a value which is acquired by dividing the absorbance of the sample reaction liquid before incubation by the absorbance of the sample reaction liquid after incubation and further by dividing the resultant value by 60.

[3] = test system: Bacillus cereus (B. ce); test: Antimicrobial activity test with Compounds 1 to 4; type: cell-based
Experimental: (§1) That is, first of all, each of Compounds 1 to 4 was dissolved in 70% ethanol, and thereafter, standard agar media were prepared wherein the concentration of each of Compounds 1 to 4 was adjusted to be 0 ppm, 5 ppm, 10 ppm, 15 ppm, 20 ppm, or 50 ppm. Subsequently, these standard agar media were subjected to autoclave sterilization so as to prepare evaluation media, and each of the biological indicators was inoculated in each of these evaluation media. After the incubation of each of the bacteria, the number of the bacteria per a petri dish (CFU/petri dish) was determined.

[4] = test system: E. coli; test: Antimicrobial activity test with Compounds 1 to 4; type: cell-based
Experimental: as §1

[5] = test system: Salmonella enteritidis (S. en; NBRC3313); test: Antimicrobial activity test with Compounds 1 to 4; type: cell-based
Experimental: as §1

[6] = test system: Staphylococcus aureus (Sta.); test: Antimicrobial activity test with Compounds 1 to 4; type: cell-based
Experimental: as §1

## CC(C)=CCC/C(C)=C/Cc1c(O)cc2c(c1O)C(=O)C[C@@H](c1ccc(O)c(O)c1)O2 [Compound 3, 5,7,3′,4′-tetrahydroxy-6-C-geranylflavanone]
[1]; 25 μM sample solution in ethanol, 1 h in dark, absorbance 517 nm, average ± SD of three runs
  Radical Scavenging Activity (%) from DPPH Radical Scavenging Activity Test: 64.00 ± 0.58%
[1]; comparison from Table 1
  radical scavenging activity (in words): highest radical scavenging activity
[2]
  Antioxidant Activity (%) from β-carotene Fading Test: 60.62 ± 1.16%
[3]; 5-50 ppm
  effect on growth and development of spore forming bacteria, B. ce (in words): high antimicrobial activity
[3]; 5 ppm in standard agar medium, 0 ppm: 13 (Table 3), 183 (Table 4)
  Number of Bacteria, B. ce: 4 CFU/petri dish
[3]; 10 ppm in standard agar medium
  Number of Bacteria, B. ce: 0 CFU/petri dish
[3]; 15 ppm in standard agar medium
  Number of Bacteria, B. ce: 0 CFU/petri dish
[3]; 20 ppm in standard agar medium
  Number of Bacteria, B. ce: 0 CFU/petri dish
[3]; 50 ppm in standard agar medium
  Number of Bacteria, B. ce: 0 CFU/petri dish
[4]; 5-50 ppm
  effect on growth and development of E. coli (in words): high antimicrobial activity
[4]; 5 ppm in standard agar medium, 0 ppm: >3000 (Table 3), 5 (Table 4)
  Number of Bacteria, E. coli: 3 CFU/petri dish
[4]; 10 ppm in standard agar medium
  Number of Bacteria, E. coli: 1 CFU/petri dish
[4]; 15 ppm in standard agar medium
  Number of Bacteria, E. coli: 0 CFU/petri dish
[4]; 20 ppm in standard agar medium
  Number of Bacteria, E. coli: 0 CFU/petri dish
[4]; 50 ppm in standard agar medium
  Number of Bacteria, E. coli: 0 CFU/petri dish
[5]; 5-50 ppm
  effect on growth and development of S. en (in words): antimicrobial activity
[5]; 5 ppm in standard agar medium, 0 ppm: >3000 (Table 3), 221 (Table 4)
  Number of Bacteria, S. en: 296 CFU/petri dish
[5]; 10 ppm in standard agar medium
  Number of Bacteria, S. en: 207 CFU/petri dish
[5]; 15 ppm in standard agar medium
  Number of Bacteria, S. en: 116 CFU/petri dish
[5]; 20 ppm in standard agar medium
  Number of Bacteria, S. en: 143 CFU/petri dish
[5]; 50 ppm in standard agar medium
  Number of Bacteria, S. en: 43 CFU/petri dish
[6]; 5-50 ppm
  effect on growth and development of Gram-positive bacteria, Sta. (in words): high antimicrobial activity
[6]; 5 ppm in standard agar medium, 0 ppm: 470 (Table 3), 202 (Table 4)
  Number of Bacteria, Sta.: 22 CFU/petri dish
[6]; 10 ppm in standard agar medium
  Number of Bacteria, Sta.: 0 CFU/petri dish
[6]; 15 ppm in standard agar medium
  Number of Bacteria, Sta.: 0 CFU/petri dish
[6]; 20 ppm in standard agar medium
  Number of Bacteria, Sta.: 0 CFU/petri dish
[6]; 50 ppm in standard agar medium
  Number of Bacteria, Sta.: 0 CFU/petri dish

Reference: US7829591B2, “Flavanone compound and uses thereof” (Pokka Corporation, priority 2003, dated 2010)
